Measurements reported in ChEMBL document CHEMBL4425083, “Quadruplex Nucleic Acids as Novel Therapeutic Targets” (J Med Chem, 2016).

Tested on: Quadruplex DNA
Assay: Binding affinity to c-myc G-quadruplex DNA (unknown origin) assessed as increase in melting temperature at 50 uM by CD-spectrometric analysis
Format: nucleic-acid assay

ΔTm: 2.1 °C
SMILES: Cc1ccc(NC(=O)c2c(C)oc3ccc(O)c(CN4CCCCCC4)c23)cc1
